Source: patent US20220073496A1, “NOVEL QUINOLINE DERIVATIVE INHIBITOR” (Nanjing Transthera Biosciences Co., Ltd., priority 2018, published 2022)
Where two headings read alike, the source gives them in different places.

Assays:
Rat PK evaluation = assay type: in vivo; conditions: SD rats; for Vz_obs iv (apparent distribution volume) / bioavailability / AUC(0-t) / clearance / half-life: n = 3; for bioavailability / AUC(0-t) / clearance / half-life / Tmax: rat, plasma; for bioavailability: read-out: F % (absolute bioavailability); for clearance: read-out: Cl_obs iv (clearance rate) (converted); for Tmax: n = 3, median, read-out: Tmax po (time to peak plasma concentration)
Method: Assay 2: Rat PK Evaluation for the Compounds of the Present Invention
Animal Administration and Sample Collection:
(§1) The test compounds 14, 15, 16, 20, 29, 30, 31, 32, 33, 34, 36, 37, 47 and 48 were dissolved in 5% DMSO+20% (30% solutol)+75% saline to prepare the compound solutions. Each of the compound solutions was intragastrically administered to SD rats at a dose of 5.0 mg/kg. The time points of blood collection were: 15 minutes, 30 minutes, 1 hour, 2 hours, 4 hours, 6 hours, 8 hours, 24 hours, 30 hours, and 48 hours.
The test compounds 38, 39, 40 and 41 were dissolved in 5% NMP+5% Tween-80+90% saline to prepare the compound solutions. Each of the compound solutions was intragastrically administered to SD rats at a dose of 5.0 mg/kg. The time points of blood collection were: 15 minutes, 30 minutes, 1 hour, 2 hours. 4 hours, 6 hours, 8 hours, 24 hours, 30 hours, and 48 hours.
as §1, with “was” for “was intragastrically”, “administered by intravenous bolus injection” for “administered”, “1” for “5.0”, “were: 5 minutes,” for “were:”, “hours,” for “hours, 30 hours,”
The test compounds 38, 39, 40 and 41 were dissolved in 5% NMP+5% Tween-80+90% saline to prepare the compound solutions. Each of the compound solutions was administered by intravenous bolus injection to SD rats at a dose of 1 mg/kg. The time points of blood collection were: 5 minutes, 15 minutes, 30 minutes, 1 hour, 2 hours, 4 hours, 6 hours, 8 hours, 24 hours, and 48 hours.
The animal was fixed. The tail was heated in a water bath pot 10 minutes before each time point. About 100 μL of blood was collected through the tail vein. The blood was collected and placed in an anti-coagulation tube containing EDTA-K2. The blood sample was centrifuged at 8000 rpm for 6 minutes at 4° C. to obtain a plasma sample. The plasma was prepared within 30 minutes after the blood collection. The plasma was stored in a −80° C. refrigerator before testing.
The sample to be tested was taken out from the −80° C. refrigerator, naturally melted at room temperature and vortexed for 5 minutes. 20 μL of plasma sample was accurately pipetted into a 1.5 mL centrifuge tube. 200 μL of an internal standard working solution (a solution of tolbutamide in methanol) having a concentration of 100 ng/mL was added and mixed well. The mixture was vortexed for 5 minutes, and centrifuged at 12000 rpm for 5 minutes. 50 μL of the supernatant was accurately pipetted into a 96-well plate pre-filled with 150 μL/well of water. The plate was vortexed for 5 minutes and mixed well, and then the LC-MS/MS determination and analysis were performed.
The concentration of the test substance was output using Analyst 1.6.3 from AB Company. Parameters such as mean, standard deviation, and coefficient of variation were calculated with Microsoft Excel (direct outputs from Analyst 1.6.3 were not calculated), and the PK parameters were calculated using Pharsight Phoenix 6.1 software NCA (Tmax was the median).

[1] = Stability in liver microsome of dogs; assay type: in vitro ADME; conditions: Dog liver microsome 0.5 mg protein/mL, compound 1 μM, 37° C.
In short: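 Compounds at 10 μM working solution (0.1% DMSO in reaction) incubated at 37° C. with liver microsomes plus β-NADPH. Samples taken at 0, 5, 10, 20, 30 and 60 min, with a no-NADPH control at 0 and 60 min, and analysed by LC/MS/MS. t1/2 and Cl derived from first-order decay, with Vd = 1/microsomal protein content.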

[2] = IV 1 mg/kg, read-out: AUClast iv (area under the drug-time curve from 0 to 48 hours)
[3] = IV 1 mg/kg, read-out: tz1/2 iv (terminal elimination half-life) (converted)
[4] = PO 5 mg/kg, read-out: AUClast po (area under the drug-time curve from 0 to 48 hours)
[5] = PO 5 mg/kg, read-out: tz1/2 po (terminal elimination half-life) (converted)

Row | Vz_obs iv (apparent distribution volume) (Rat PK evaluation; IV 1 mg/kg) [L/kg] | bioavailability (Rat PK evaluation; IV 1 mg/kg, PO 5 mg/kg) [%] | AUC(0-t) (Rat PK evaluation; [2]) [ng·h/mL] | clearance (Rat PK evaluation; IV 1 mg/kg) [mL/min/kg] | half-life (Rat PK evaluation; [3]) [h] | Tmax (Rat PK evaluation; PO 5 mg/kg) [h] | AUC(0-t) (Rat PK evaluation; [4]) [ng·h/mL] | half-life (Rat PK evaluation; [5]) [h] | t1/2 [1] | Compound
1 | 1.21 | 90.2 | 6920 | 2.5 | 5.89 | 2 | 32400 | 5.67 | →∞ | COc1cc2nccc(Oc3cnc(NC(=O)c4cn(C(C)C)nc(-c5ccc(F)cc5)c4=O)nc3)c2cc1OC [Compound 39, N-(5-((6,7-dimethoxyquinolin-4-yl)oxy)pyrimidine-2-yl)-6-(4-fluorophenyl)-2-isopropyl-5-oxo-2,5-dihydropyridazine-4-carboxamide]
2 | 1.84 | 63.4 | 7270 | 2.33 | 9.18 | 4 | 23000 | 8.68 | →∞ | COc1cc2nccc(Oc3ncc(NC(=O)c4cn(C(C)C)nc(-c5ccc(F)cc5)c4=O)cn3)c2cc1OC [Compound 40, N-(2-((6,7-dimethoxyquinolin-4-yl)oxy)pyrimidine-5-yl)-6-(4-fluorophenyl)-2-isopropyl-5-oxo-2,5-dihydropyridazine-4-carboxamide]
